# Results reported in patent US7625875B2 (priority 2002, dated 2009).
# What was measured:
# [1] = test system: DENV 2; experiment: microbe, parasite or virus in culture; format: cell-based, dengue virus; details: Dengue virus, read-out: DENV 2
# [2] = test system: WNV; experiment: microbe, parasite or virus in culture; format: cell-based, West Nile virus; details: West Nile virus, read-out: WNV
# [3] = test system: Sb-1; experiment: organism not typed; format: cell-based, Sabin type 1 poliomyelitis virus; details: read-out: Sb-1
# [4] = Safety in the chimpanzee model of chronic HCV infection; format: in vivo; details: 10 or 20 mg/kg/day dihydrochloride PO, 7 days
# Text: Chimpanzees were monitored by trained veterinarians throughout the study for weight loss, temperature, appetite, and general well being, as well as for blood chemistry profile and CBCs. […] The drug appeared to be well tolerated by all four treated animals. […] A single animal experienced an alanine aminotransferase (ALT) flare in the pretreatment period prior to the start of dosing, but the ALT levels diminished during treatment. Thus, this isolated ALT event was not attributable to drug.
# [5] = in vitro; details: human
# [6] = Stability in human plasma
# [7] = test system: HCV; experiment: Clinical antiviral activity, serum HCV RNA (Amplicor HCV Monitor), val-mCyd daily for 15 days
smiles,measurement,setting,value
"CC(C)C(N)C(=O)OC1[C@@H](CO)O[C@@H](n2ccc(N)nc2=O)[C@@]1(C)O (some centres unmarked) [val-mCyd, 2-Amino-3-methyl-butyric acid 5-(4-amino-2-oxo-2H-pyrimidine-1-yl)-4-hydroxy-2 hydroxy-methyl-4-methyl-tetrahydro-furan-3-yl ester]",EC50,[1],> 100 µM
same,EC50,[2],82 µM
same,EC50,[3],14 µM
same,"adverse events, tolerability",[4],No adverse events due to drug were noted
same,CC50,[5],24 µM
same,input val-mCyd remaining,"[6]; 37° C., after 10 hours",2%
same,half-life,"[6]; human, plasma",1.81 h
same,"HCV RNA in Log10 scale, mean","[7]; 50 mg, Day 1 (baseline)",6.72 log10
same,"HCV RNA in Log10 scale, median","[7]; 50 mg, Day 1 (baseline)",6.69 log10
same,"Change from baseline (Day 1) in Log10 HCV RNA, mean","[7]; 50 mg, Day 2",−0.13 log10
same,"Change from baseline (Day 1) in Log10 HCV RNA, median","[7]; 50 mg, Day 2",−0.07 log10
same,"HCV RNA in Log10 scale, mean","[7]; 50 mg, Day 2",6.60 log10
same,"HCV RNA in Log10 scale, median","[7]; 50 mg, Day 2",6.58 log10
same,"Change from baseline (Day 1) in Log10 HCV RNA, mean","[7]; 50 mg, Day 4",−0.16 log10
same,"Change from baseline (Day 1) in Log10 HCV RNA, median","[7]; 50 mg, Day 4",−0.13 log10
same,"HCV RNA in Log10 scale, mean","[7]; 50 mg, Day 4",6.56 log10
same,"HCV RNA in Log10 scale, median","[7]; 50 mg, Day 4",6.55 log10
same,"Change from baseline (Day 1) in Log10 HCV RNA, mean","[7]; 50 mg, Day 8",−0.11 log10
same,"Change from baseline (Day 1) in Log10 HCV RNA, median","[7]; 50 mg, Day 8",−0.06 log10
same,"HCV RNA in Log10 scale, mean","[7]; 50 mg, Day 8",6.62 log10
same,"HCV RNA in Log10 scale, median","[7]; 50 mg, Day 8",6.56 log10
same,"Change from baseline (Day 1) in Log10 HCV RNA, mean","[7]; 50 mg, Day 11",−0.26 log10
same,"Change from baseline (Day 1) in Log10 HCV RNA, median","[7]; 50 mg, Day 11",−0.26 log10
same,"HCV RNA in Log10 scale, mean","[7]; 50 mg, Day 11",6.47 log10
same,"HCV RNA in Log10 scale, median","[7]; 50 mg, Day 11",6.46 log10
same,"Change from baseline (Day 1) in Log10 HCV RNA, mean","[7]; 50 mg, Day 15",−0.15 log10
same,"Change from baseline (Day 1) in Log10 HCV RNA, median","[7]; 50 mg, Day 15",−0.10 log10
same,"HCV RNA in Log10 scale, mean","[7]; 50 mg, Day 15",6.57 log10
same,"HCV RNA in Log10 scale, median","[7]; 50 mg, Day 15",6.57 log10
same,"Change from baseline (Day 1) in Log10 HCV RNA, mean","[7]; 50 mg, Day 16",−0.15 log10
same,"Change from baseline (Day 1) in Log10 HCV RNA, median","[7]; 50 mg, Day 16",−0.13 log10
same,"HCV RNA in Log10 scale, mean","[7]; 50 mg, Day 16",6.57 log10
same,"HCV RNA in Log10 scale, median","[7]; 50 mg, Day 16",6.45 log10
same,"Change from baseline (Day 1) in Log10 HCV RNA, mean","[7]; 50 mg, Day 17",−0.18 log10
same,"Change from baseline (Day 1) in Log10 HCV RNA, median","[7]; 50 mg, Day 17",−0.21 log10
same,"HCV RNA in Log10 scale, mean","[7]; 50 mg, Day 17",6.54 log10
same,"HCV RNA in Log10 scale, median","[7]; 50 mg, Day 17",6.54 log10
same,"Change from baseline (Day 1) in Log10 HCV RNA, mean","[7]; 50 mg, Day 22",−0.09 log10
same,"Change from baseline (Day 1) in Log10 HCV RNA, median","[7]; 50 mg, Day 22",−0.09 log10
same,"HCV RNA in Log10 scale, mean","[7]; 50 mg, Day 22",6.64 log10
same,"HCV RNA in Log10 scale, median","[7]; 50 mg, Day 22",6.73 log10
same,"Change from baseline (Day 1) in Log10 HCV RNA, mean","[7]; 50 mg, Day 29",−0.01 log10
same,"Change from baseline (Day 1) in Log10 HCV RNA, median","[7]; 50 mg, Day 29",−0.04 log10
same,"HCV RNA in Log10 scale, mean","[7]; 50 mg, Day 29",6.71 log10
same,"HCV RNA in Log10 scale, median","[7]; 50 mg, Day 29",6.67 log10
same,"HCV RNA in Log10 scale, mean","[7]; 50 mg, Day −1 (pre-treatment)",6.72 log10
same,"HCV RNA in Log10 scale, median","[7]; 50 mg, Day −1 (pre-treatment)",6.81 log10
same,"HCV RNA in Log10 scale, mean","[7]; 100 mg, Day 1 (baseline)",6.68 log10
same,"HCV RNA in Log10 scale, median","[7]; 100 mg, Day 1 (baseline)",6.93 log10
same,"Change from baseline (Day 1) in Log10 HCV RNA, mean","[7]; 100 mg, Day 2",−0.16 log10
same,"Change from baseline (Day 1) in Log10 HCV RNA, median","[7]; 100 mg, Day 2",−0.12 log10
same,"HCV RNA in Log10 scale, mean","[7]; 100 mg, Day 2",6.52 log10
same,"HCV RNA in Log10 scale, median","[7]; 100 mg, Day 2",6.80 log10
same,"Change from baseline (Day 1) in Log10 HCV RNA, mean","[7]; 100 mg, Day 4",−0.25 log10
same,"Change from baseline (Day 1) in Log10 HCV RNA, median","[7]; 100 mg, Day 4",−0.24 log10
same,"HCV RNA in Log10 scale, mean","[7]; 100 mg, Day 4",6.43 log10
